# Experimental data as given in ChEMBL document CHEMBL4507257, “Data for DCP probe ABT-100” (2021).
# How the values were obtained:
# [1] = biological target: Beta-adrenergic receptor kinase 1 (Homo sapiens) (UniProt P25098); settings: Compound concentration 1000.0 nM
# [2] = biological target: Activated CDC42 kinase 1 (Homo sapiens) (UniProt Q07912); settings: Compound concentration 1000.0 nM
# [3] = biological target: Rhodopsin kinase GRK7 (Homo sapiens) (UniProt Q8WTQ7); settings: Compound concentration 1000.0 nM
# Sequence of Rhodopsin kinase GRK7 (Homo sapiens) (Q8WTQ7 whole entry): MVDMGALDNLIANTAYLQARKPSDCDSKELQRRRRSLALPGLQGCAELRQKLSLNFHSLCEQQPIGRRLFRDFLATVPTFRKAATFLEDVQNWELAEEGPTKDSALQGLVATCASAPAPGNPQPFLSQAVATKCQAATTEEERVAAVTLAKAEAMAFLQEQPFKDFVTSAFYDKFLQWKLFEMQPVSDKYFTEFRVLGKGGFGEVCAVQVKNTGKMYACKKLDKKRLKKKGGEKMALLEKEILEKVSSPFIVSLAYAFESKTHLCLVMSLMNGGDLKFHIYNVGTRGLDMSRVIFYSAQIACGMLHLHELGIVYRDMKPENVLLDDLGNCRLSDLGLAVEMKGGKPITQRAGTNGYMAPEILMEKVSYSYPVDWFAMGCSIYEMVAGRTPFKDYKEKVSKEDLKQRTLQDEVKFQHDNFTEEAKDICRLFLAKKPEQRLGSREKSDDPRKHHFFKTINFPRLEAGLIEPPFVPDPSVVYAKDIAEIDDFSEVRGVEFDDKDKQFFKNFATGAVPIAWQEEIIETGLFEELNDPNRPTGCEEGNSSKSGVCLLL
# [4] = biological target: Serine/threonine-protein kinase TAO2 (Homo sapiens) (UniProt Q9UL54); settings: Compound concentration 1000.0 nM
# Sequence of Serine/threonine-protein kinase TAO2 (Homo sapiens) (Q9UL54 whole entry): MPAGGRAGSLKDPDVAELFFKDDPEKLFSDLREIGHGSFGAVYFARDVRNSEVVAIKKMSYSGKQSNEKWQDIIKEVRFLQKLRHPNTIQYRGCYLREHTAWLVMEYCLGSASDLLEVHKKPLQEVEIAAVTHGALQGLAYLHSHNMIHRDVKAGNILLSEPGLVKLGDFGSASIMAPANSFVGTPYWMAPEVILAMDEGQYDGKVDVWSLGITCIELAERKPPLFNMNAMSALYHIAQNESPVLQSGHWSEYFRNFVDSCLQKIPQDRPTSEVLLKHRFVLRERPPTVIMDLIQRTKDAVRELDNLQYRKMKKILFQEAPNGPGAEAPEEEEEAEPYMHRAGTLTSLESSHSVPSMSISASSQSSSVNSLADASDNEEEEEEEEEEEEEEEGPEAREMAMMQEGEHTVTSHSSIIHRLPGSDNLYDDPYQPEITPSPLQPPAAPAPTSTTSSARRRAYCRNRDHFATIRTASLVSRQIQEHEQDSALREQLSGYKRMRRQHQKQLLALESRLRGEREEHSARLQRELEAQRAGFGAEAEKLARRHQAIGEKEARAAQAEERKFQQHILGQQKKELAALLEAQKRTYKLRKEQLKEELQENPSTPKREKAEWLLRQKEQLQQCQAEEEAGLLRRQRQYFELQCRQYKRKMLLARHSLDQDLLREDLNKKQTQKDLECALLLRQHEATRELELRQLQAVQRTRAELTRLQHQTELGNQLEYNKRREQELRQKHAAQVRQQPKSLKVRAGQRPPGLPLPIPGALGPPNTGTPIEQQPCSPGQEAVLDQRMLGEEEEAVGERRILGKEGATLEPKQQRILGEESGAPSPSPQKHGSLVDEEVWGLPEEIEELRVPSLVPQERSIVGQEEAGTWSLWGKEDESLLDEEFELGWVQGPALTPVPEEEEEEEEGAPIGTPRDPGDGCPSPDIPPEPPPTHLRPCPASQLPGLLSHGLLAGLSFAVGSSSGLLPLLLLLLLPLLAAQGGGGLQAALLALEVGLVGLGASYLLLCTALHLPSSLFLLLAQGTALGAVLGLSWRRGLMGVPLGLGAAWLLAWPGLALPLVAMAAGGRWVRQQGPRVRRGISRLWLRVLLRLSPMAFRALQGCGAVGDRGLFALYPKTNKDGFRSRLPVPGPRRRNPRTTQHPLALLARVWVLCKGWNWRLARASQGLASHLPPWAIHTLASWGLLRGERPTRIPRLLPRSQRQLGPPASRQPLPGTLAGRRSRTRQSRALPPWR
# [5] = biological target: Bone morphogenetic protein receptor type-1B (Homo sapiens) (UniProt O00238); settings: Compound concentration 1000.0 nM
# [6] = tested on: Phosphatidylinositol 4,5-bisphosphate 3-kinase catalytic subunit alpha isoform (Homo sapiens), P42336 [E545A]; settings: Compound concentration 1000.0 nM
# [7] = biological target: 5-hydroxytryptamine receptor 5A (Homo sapiens) (UniProt P47898); settings: Compound concentration 10.0 uM
# [8] = biological target: Receptor tyrosine-protein kinase erbB-3 (Homo sapiens) (UniProt P21860); settings: Compound concentration 1000.0 nM
# [9] = biological target: Calcium/calmodulin-dependent protein kinase kinase 2 (Homo sapiens) (UniProt Q96RR4); settings: Compound concentration 1000.0 nM
# [10] = biological target: Activin receptor type-2A (Homo sapiens) (UniProt P27037); settings: Compound concentration 1000.0 nM
# [11] = biological target: Serine/threonine-protein kinase/endoribonuclease IRE1 (Homo sapiens) (UniProt O75460); settings: Compound concentration 1000.0 nM
# [12] = biological target: Dual specificity tyrosine-phosphorylation-regulated kinase 2 (Homo sapiens) (UniProt Q92630); settings: Compound concentration 1000.0 nM
# Sequence of Dual specificity tyrosine-phosphorylation-regulated kinase 2 (Homo sapiens) (Q92630 whole entry): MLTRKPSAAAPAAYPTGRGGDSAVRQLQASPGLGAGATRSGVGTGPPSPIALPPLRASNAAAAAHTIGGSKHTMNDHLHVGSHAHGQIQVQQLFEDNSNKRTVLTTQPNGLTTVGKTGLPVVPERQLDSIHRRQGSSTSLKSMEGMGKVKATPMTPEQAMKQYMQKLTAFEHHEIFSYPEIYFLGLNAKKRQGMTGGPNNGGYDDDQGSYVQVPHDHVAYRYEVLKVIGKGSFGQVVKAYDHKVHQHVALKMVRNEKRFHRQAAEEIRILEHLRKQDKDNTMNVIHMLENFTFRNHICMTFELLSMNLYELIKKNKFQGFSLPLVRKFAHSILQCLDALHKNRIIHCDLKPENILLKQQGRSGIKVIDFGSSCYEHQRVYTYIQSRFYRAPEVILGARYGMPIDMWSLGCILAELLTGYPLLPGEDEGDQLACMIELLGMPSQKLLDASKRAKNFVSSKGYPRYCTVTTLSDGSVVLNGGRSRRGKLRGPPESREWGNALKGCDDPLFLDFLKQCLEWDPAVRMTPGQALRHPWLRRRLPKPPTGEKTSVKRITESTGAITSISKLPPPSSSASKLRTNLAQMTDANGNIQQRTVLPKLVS
# [13] = biological target: Serine/threonine-protein kinase TAO3 (Homo sapiens) (UniProt Q9H2K8); settings: Compound concentration 1000.0 nM
# [14] = biological target: Serine/threonine-protein kinase OSR1 (Homo sapiens) (UniProt O95747); settings: Compound concentration 1000.0 nM
# Sequence of Serine/threonine-protein kinase OSR1 (Homo sapiens) (O95747 2-527 limits assumed): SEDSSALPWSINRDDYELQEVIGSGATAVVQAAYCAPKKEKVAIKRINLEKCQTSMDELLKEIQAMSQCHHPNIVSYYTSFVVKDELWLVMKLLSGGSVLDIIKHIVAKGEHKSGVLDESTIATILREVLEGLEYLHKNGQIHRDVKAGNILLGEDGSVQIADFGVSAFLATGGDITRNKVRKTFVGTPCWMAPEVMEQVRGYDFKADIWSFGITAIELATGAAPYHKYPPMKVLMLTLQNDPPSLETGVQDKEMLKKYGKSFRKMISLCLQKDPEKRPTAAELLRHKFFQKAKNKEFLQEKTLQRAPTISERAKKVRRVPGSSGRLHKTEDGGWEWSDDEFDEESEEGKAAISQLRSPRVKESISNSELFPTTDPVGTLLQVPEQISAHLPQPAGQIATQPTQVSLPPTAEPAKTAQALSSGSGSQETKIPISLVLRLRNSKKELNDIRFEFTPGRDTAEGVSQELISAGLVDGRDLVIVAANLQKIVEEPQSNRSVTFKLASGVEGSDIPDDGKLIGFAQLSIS
# [15] = biological target: Serine/threonine-protein kinase Nek7 (Homo sapiens, UniProt Q8TDX7); settings: Compound concentration 1000.0 nM
# [16] = biological target: Serine/threonine-protein kinase MRCK beta (Homo sapiens) (UniProt Q9Y5S2); settings: Compound concentration 1000.0 nM
# [17] = biological target: Cyclin-dependent kinase 17 (Homo sapiens) (UniProt Q00537); settings: Compound concentration 1000.0 nM
# [18] = biological target: Serine/threonine-protein kinase SBK1 (Homo sapiens) (UniProt Q52WX2); settings: Compound concentration 1000.0 nM
# [19] = biological target: Cyclin-dependent kinase-like 2 (Homo sapiens) (UniProt Q92772); settings: Compound concentration 1000.0 nM
# [20] = biological target: Myosin-IIIb (Homo sapiens) (UniProt Q8WXR4); settings: Compound concentration 1000.0 nM
# [21] = biological target: Serine/threonine-protein kinase BRSK1 (Homo sapiens) (UniProt Q8TDC3); settings: Compound concentration 1000.0 nM
# [22] = biological target: Serine/threonine-protein kinase DCLK3 (Homo sapiens) (UniProt Q9C098); settings: Compound concentration 1000.0 nM
# [23] = biological target: Dual specificity tyrosine-phosphorylation-regulated kinase 1B (Homo sapiens) (UniProt Q9Y463); settings: Compound concentration 1000.0 nM
# [24] = biological target: Homeodomain-interacting protein kinase 4 (Homo sapiens) (UniProt Q8NE63); settings: Compound concentration 1000.0 nM
# [25] = biological target: Calcium/calmodulin-dependent protein kinase kinase 1 (Homo sapiens) (UniProt Q8N5S9); settings: Compound concentration 1000.0 nM
# [26] = biological target: Phosphatidylinositol 4,5-bisphosphate 3-kinase catalytic subunit alpha isoform (Homo sapiens) (UniProt P42336); settings: Compound concentration 1000.0 nM
# [27] = biological target: Serine/threonine-protein kinase 25 (Homo sapiens) (UniProt O00506); settings: Compound concentration 1000.0 nM
# [28] = biological target: G protein-coupled receptor kinase 4 (Homo sapiens) (UniProt P32298); settings: Compound concentration 1000.0 nM
# [29] = biological target: MAP/microtubule affinity-regulating kinase 4 (Homo sapiens) (UniProt Q96L34); settings: Compound concentration 1000.0 nM
# [30] = biological target: Non-receptor tyrosine-protein kinase TYK2 (Homo sapiens) (UniProt P29597); settings: Compound concentration 1000.0 nM
# Sequence of Non-receptor tyrosine-protein kinase TYK2 (Homo sapiens) (P29597 whole entry): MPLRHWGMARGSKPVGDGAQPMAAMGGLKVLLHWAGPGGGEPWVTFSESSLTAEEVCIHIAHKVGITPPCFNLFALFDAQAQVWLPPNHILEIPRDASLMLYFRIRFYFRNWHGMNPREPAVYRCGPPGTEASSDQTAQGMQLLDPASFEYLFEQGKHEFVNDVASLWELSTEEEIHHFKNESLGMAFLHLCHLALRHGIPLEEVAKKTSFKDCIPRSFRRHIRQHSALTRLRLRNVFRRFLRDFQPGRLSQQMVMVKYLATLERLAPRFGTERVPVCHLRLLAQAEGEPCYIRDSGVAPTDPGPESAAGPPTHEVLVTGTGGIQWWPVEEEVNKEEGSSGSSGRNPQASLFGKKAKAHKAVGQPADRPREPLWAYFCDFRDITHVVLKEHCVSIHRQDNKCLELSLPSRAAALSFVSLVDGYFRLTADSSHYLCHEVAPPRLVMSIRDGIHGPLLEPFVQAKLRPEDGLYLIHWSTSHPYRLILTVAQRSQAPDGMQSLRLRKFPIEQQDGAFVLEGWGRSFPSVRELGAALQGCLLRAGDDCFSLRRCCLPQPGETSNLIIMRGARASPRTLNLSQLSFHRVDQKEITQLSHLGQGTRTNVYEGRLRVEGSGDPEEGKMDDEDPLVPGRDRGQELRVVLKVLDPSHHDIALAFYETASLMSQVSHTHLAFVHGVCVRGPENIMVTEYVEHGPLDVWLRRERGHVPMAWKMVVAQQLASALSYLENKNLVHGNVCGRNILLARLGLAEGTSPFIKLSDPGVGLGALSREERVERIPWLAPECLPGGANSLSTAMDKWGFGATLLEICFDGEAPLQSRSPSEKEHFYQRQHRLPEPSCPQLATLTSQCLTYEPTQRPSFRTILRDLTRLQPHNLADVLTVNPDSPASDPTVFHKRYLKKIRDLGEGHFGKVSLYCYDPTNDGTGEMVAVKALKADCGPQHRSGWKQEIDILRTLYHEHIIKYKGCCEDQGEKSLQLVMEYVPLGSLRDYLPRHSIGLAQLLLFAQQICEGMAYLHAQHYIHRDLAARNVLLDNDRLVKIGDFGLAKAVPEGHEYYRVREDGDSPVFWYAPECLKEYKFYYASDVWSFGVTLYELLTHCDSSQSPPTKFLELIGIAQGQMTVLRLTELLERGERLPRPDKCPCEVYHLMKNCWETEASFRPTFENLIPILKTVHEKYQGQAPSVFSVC
# [31] = biological target: RAC-alpha serine/threonine-protein kinase (Homo sapiens) (UniProt P31749); settings: Compound concentration 1000.0 nM
# [32] = biological target: Ephrin type-A receptor 7 (Homo sapiens) (UniProt Q15375); settings: Compound concentration 1000.0 nM
# [33] = tested on: Epidermal growth factor receptor (Homo sapiens), P00533 [L858R]; settings: Compound concentration 1000.0 nM
# [34] = biological target: Mitogen-activated protein kinase kinase kinase 20 (Homo sapiens) (UniProt Q9NYL2); settings: Compound concentration 1000.0 nM
# [35] = biological target: Non-receptor tyrosine-protein kinase TYK2 (Homo sapiens) (UniProt P29597); settings: Compound concentration 1000.0 nM; remark: listed apart in the source
# [36] = biological target: Vascular endothelial growth factor receptor 1 (Homo sapiens) (UniProt P17948); settings: Compound concentration 1000.0 nM
# [37] = biological target: Serine/threonine-protein kinase ICK (Homo sapiens) (UniProt Q9UPZ9); settings: Compound concentration 1000.0 nM
# [38] = biological target: Ankyrin repeat and protein kinase domain-containing protein 1 (Homo sapiens) (UniProt Q8NFD2); settings: Compound concentration 1000.0 nM
# Sequence of Ankyrin repeat and protein kinase domain-containing protein 1 (Homo sapiens) (Q8NFD2 whole entry, the tested form may be a part): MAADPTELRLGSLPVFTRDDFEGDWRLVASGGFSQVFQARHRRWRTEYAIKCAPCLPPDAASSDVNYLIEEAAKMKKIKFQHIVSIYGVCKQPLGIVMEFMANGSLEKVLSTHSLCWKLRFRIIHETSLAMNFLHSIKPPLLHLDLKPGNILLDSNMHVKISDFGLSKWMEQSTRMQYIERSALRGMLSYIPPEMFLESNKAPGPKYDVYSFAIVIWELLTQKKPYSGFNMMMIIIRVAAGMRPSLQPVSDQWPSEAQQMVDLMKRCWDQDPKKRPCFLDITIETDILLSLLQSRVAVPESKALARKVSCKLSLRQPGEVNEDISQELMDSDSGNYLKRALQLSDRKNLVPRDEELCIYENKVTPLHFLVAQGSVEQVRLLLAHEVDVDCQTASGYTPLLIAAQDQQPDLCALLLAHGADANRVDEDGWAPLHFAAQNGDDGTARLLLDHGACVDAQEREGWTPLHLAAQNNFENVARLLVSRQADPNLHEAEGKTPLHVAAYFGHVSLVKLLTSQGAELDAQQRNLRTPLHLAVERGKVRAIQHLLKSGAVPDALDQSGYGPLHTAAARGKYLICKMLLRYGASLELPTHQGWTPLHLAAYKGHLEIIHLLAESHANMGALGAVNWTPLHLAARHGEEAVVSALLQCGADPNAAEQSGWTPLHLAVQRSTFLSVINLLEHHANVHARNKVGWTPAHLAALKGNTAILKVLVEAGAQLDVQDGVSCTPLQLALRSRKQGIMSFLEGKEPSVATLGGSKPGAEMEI
# [39] = biological target: Protein-tyrosine kinase 2-beta (Homo sapiens) (UniProt Q14289); settings: Compound concentration 1000.0 nM
# [40] = biological target: Uncharacterized serine/threonine-protein kinase SBK3 (Homo sapiens) (UniProt P0C264); settings: Compound concentration 1000.0 nM
# [41] = tested on: Tyrosine-protein kinase ABL1 (Homo sapiens), P00519 [H396P]; settings: Compound concentration 1000.0 nM
# [42] = biological target: Glycogen synthase kinase-3 alpha (Homo sapiens) (UniProt P49840); settings: Compound concentration 1000.0 nM
# [43] = biological target: AP2-associated protein kinase 1 (Homo sapiens) (UniProt Q2M2I8); settings: Compound concentration 1000.0 nM
# [44] = biological target: Dual specificity mitogen-activated protein kinase kinase 2 (Homo sapiens) (UniProt P36507); settings: Compound concentration 1000.0 nM
# [45] = biological target: SRSF protein kinase 1 (Homo sapiens) (UniProt Q96SB4); settings: Compound concentration 1000.0 nM
compound,measurement,setting,value
Cn1cncc1[C@@](O)(COc1ccc(C#N)cc1-c1ccc(OC(F)(F)F)cc1)c1ccc(C#N)cc1 [A-108],residual activity,[1],95%
same,residual activity,[2],100%
same,residual activity,[3],81%
same,residual activity,[4],98%
same,residual activity,[5],96%
same,residual activity,[6],86%
same,inhibition,[7],0.81%
same,residual activity,[8],89%
same,residual activity,[9],97%
same,residual activity,[10],98%
same,residual activity,[11],95%
same,residual activity,[12],89%
same,residual activity,[13],100%
same,residual activity,[14],75%
same,residual activity,[15],99%
same,residual activity,[16],95%
same,residual activity,[17],95%
same,residual activity,[18],100%
same,residual activity,[19],93%
same,residual activity,[20],55%
same,residual activity,[21],86%
same,residual activity,[22],94%
same,residual activity,[23],38%
same,residual activity,[24],100%
same,residual activity,[25],100%
same,residual activity,[26],72%
same,residual activity,[27],95%
same,residual activity,[28],56%
same,residual activity,[29],100%
same,residual activity,[30],92%
same,residual activity,[31],100%
same,residual activity,[32],100%
same,residual activity,[33],100%
same,residual activity,[34],85%
same,residual activity,[35],100%
same,residual activity,[36],83%
same,residual activity,[37],75%
same,residual activity,[38],100%
same,residual activity,[39],100%
same,residual activity,[40],92%
same,residual activity,[41],88%
same,residual activity,[42],100%
same,residual activity,[43],94%
same,residual activity,[44],74%
same,residual activity,[45],97%
Cn1cncc1[C@](O)(COc1ccc(C#N)cc1-c1ccc(OC(F)(F)F)cc1)c1ccc(C#N)cc1 [ABT-100],residual activity,[1],74%
same,residual activity,[2],100%
same,residual activity,[3],100%
same,residual activity,[4],98%
same,residual activity,[5],77%
same,residual activity,[6],100%
same,inhibition,[7],1.81%
same,residual activity,[8],87%
same,residual activity,[9],100%
same,residual activity,[10],100%
same,residual activity,[11],100%
same,residual activity,[12],52%
same,residual activity,[13],87%
same,residual activity,[14],100%
same,residual activity,[15],46%
same,residual activity,[16],76%
same,residual activity,[17],100%
same,residual activity,[18],100%
same,residual activity,[19],88%
same,residual activity,[20],71%
same,residual activity,[21],73%
same,residual activity,[22],99%
same,residual activity,[23],58%
same,residual activity,[24],86%
same,residual activity,[25],77%
same,residual activity,[26],100%
same,residual activity,[27],91%
same,residual activity,[28],62%
same,residual activity,[29],56%
same,residual activity,[30],56%
same,residual activity,[31],84%
same,residual activity,[32],91%
same,residual activity,[33],86%
same,residual activity,[34],100%
same,residual activity,[35],100%
same,residual activity,[36],98%
same,residual activity,[37],100%
same,residual activity,[38],100%
same,residual activity,[39],62%
same,residual activity,[40],100%
same,residual activity,[41],91%
same,residual activity,[42],62%
same,residual activity,[43],87%
same,residual activity,[44],94%
same,residual activity,[45],70%
